“And” between values parts separate entries of the source, which are not always exact repeats. Identical values can stand only once.
What was measured:
[1] = target: T1, Trichoderma reesei beta-glucosidase TrCel3A (Cel3A, BGL1), wild type (parental), SEQ ID NO: 116 / SEQ ID NO: 1 (Trichoderma reesei, UniProt Q12715); test: Initial rate assay of cellobiose hydrolysis, parental TrCel3A (Example 9); type: biochemical
T1 sequence (Q12715 32-744): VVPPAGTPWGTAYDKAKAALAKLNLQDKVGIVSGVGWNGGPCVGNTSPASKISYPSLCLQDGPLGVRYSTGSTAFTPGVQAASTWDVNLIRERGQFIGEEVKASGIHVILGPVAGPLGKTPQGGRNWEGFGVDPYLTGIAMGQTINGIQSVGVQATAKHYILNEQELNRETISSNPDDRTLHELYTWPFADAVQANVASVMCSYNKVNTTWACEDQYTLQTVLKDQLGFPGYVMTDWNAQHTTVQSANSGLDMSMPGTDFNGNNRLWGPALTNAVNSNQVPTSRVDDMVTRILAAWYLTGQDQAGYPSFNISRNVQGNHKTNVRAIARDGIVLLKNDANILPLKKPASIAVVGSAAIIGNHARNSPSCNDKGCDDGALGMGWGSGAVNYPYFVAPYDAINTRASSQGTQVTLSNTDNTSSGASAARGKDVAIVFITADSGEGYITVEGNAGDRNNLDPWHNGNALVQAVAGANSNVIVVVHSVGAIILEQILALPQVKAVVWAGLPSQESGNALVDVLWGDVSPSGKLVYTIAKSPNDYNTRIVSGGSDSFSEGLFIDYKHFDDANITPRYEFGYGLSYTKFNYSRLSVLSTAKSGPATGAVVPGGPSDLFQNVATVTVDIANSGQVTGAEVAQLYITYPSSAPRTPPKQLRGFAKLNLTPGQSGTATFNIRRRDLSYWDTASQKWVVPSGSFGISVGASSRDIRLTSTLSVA
From the text: (§1) KG is defined as the concentration of glucose which reduces the enzymatic activity of the beta-glucosidase by 50%. […] The kcat is the catalytic rate constant for the hydrolysis of cellobiose. Example 8 details an assay for measuring the KG and KG2 of parental and modified TrCel3A beta-glucosidases. Example 9 details an assay for measuring the kcat of parental and modified TrCel3A beta-glucosidases.
(§2) KG of the parental and modified TrCel3A beta-glucosidases can be determined by measuring the rate of hydrolysis of a chromogenic substrate, such as p-nitrophenyl-beta-D-glucopyranoside (pNPG), in the presence of various concentrations of glucose as described in Example 8. […] The KG2 constants for parental and modified TrCel3A beta-glucosidases can be determined by measuring the rate of hydrolysis of cellobiose in reactions containing increasing concentrations of cellobiose or, alternatively, by measuring the rate of hydrolysis of a chromogenic substrate, such as pNPG, in the presence of various concentrations of a cellobiose as described in Example 8. […] The kcat values for parental and modified TrCel3A beta-glucosidases can be determined by measuring the rate of cellobiose hydrolysis at varying concentrations of a cellobiose substrate, for example, as described in Example 9. […]

[2] = test system: Trichoderma reesei beta-glucosidase TrCel3A variant TrCel3A-I543N, SEQ ID NO: 10 (full: SEQ ID NO: 125); test: Initial rate assay of cellobiose hydrolysis, TrCel3A-I543N (Example 9); type: biochemical; settings: relative to parental TrCel3A
From the text: as §1, §2

[3] = target: T1, Trichoderma reesei beta-glucosidase TrCel3A (Cel3A, BGL1), wild type (parental), SEQ ID NO: 116 / SEQ ID NO: 1; test: pNPG competitive substrate/inhibitor real-time kinetic assay, parental TrCel3A (Example 8)
[4] = target: Beta-glucosidases from most fungi; settings: literature, read-out: KG values for glucose (glucose inhibition); cited from earlier work
[5] = target: Several microbial beta-glucosidases with higher tolerance to glucose inhibition; settings: literature, read-out: KG (tolerance to glucose inhibition); cited from earlier work
[6] = substrate: OC[C@H]1O[C@@H](O[C@H]2[C@H](O)[C@@H](O)C(O)O[C@@H]2CO)[C@H](O)[C@@H](O)[C@@H]1O; test: purified protein, by the assay type; settings: other: 0.4 mM pNPG, 3 mM cellobiose, 50 mM citrate pH 5.0, 50° C.

OC[C@H]1O[C@@H](O[C@H]2[C@H](O)[C@@H](O)C(O)O[C@@H]2CO)[C@H](O)[C@@H](O)[C@@H]1O (stereo partly drawn) [cellobiose, gluco-beta-(1,4)-glucoside]
kcat (catalytic rate constant for cellobiose) ([1]; 0.3 to 40 mM cellobiose, 50° C., 15 min): 8.92 µmol/min/mg and 8.92 ± 0.29 µmol/min/mg | Relative kcat ([1]; cellobiose, relative to parental TrCel3A): 1 | Relative kcat [2]: 0.73 | Relative KG2 ([3]; relative to parental TrCel3A): 1.00

OC[C@H]1OC(O)[C@H](O)[C@@H](O)[C@@H]1O (some centres unmarked) [glucose]
Ki [4]: 600 to 8000 µM | Ki [5]: > 8000 µM | Ki [3]: 580 µM

B1: Trichoderma reesei beta-glucosidase TrCel3A (Cel3A, BGL1), wild type (parental), SEQ ID NO: 116 / SEQ ID NO: 1 (Trichoderma reesei) (protein)
chain: T1 sequence (Q12715 32-744)
Km [6]: 1180 ± 120 µM
